Key:
[1] = system: THP-1 dual reporter cells; test: THP-1 dual reporter assay (ISRE and NF-κB promoter activity); assay type: cell-based, human; details: 5 μg/mL ADU-S100, 2 μM Compound 1 or 2, overnight
Description: THP1-Dual™ Cells lines were purchased from InvivoGen (WT (thpd-nfis) and STING-KO (thpd-kostg)) and cultured as recommended by manufacturer: in RPMI media (Gibco 22400-071) supplemented with 10% heat-inactivated Fetal Bovine Serum (FBS) (Gibco A38400-02) and 1× Pen-Strep-Glutamine (Gibco 10378-016). Cells were treated with selective antibiotic every other passage using 100 μg/ml Normocin™ (InvivoGen ant-nr-1), 10 μg/ml of blasticidin (InvivoGen ant-bl-05) and 100 μg/ml of Zeocin™ (InvivoGen ant-zn-05). THP1-Dual™ Cells (wild-type or STING-KO) were seeded at 1.5×10^5 cells/well in 96-well plates. Cells were treated with DMSO, 5 μg/mL ADU-S100, 2 μM Compound 1 or 2 or the combinations overnight. The next day, 10 μL of the media from the treated cells were mixed with 50 μL of QUANTI-Luc™ Gold (Invivogen rep-qlcg2) in a white 96-well plate (Thermo Scientific 9502887) to measure the interferon-sensitive response element (ISRE) promoter activity through Luciferase signal using a plate reader. For measuring NF-κB promoter activity, 10 μL of the media from the treated cells were mixed with 90 μL of QUANTI-Blue™ (Invivogen rep-qbs3) in white-96-well plates (Corning-Costar 3610), then incubated at 37° C. for one hour. The signal was then measured using a plate reader with detection at 640 nm wavelength.

[2] = system: THP-1 dual reporter cells; test: Cytokine secretion in wild-type and STING knockout THP-1 dual reporter cells; assay type: cell-based, human; details: wild-type THP-1 dual reporter cells
B16-F10 tumors = test: In vivo study of B16-F10 tumors; parameters: species or system C57BI/6 mice
Description: B16-F10 tumor-bearing C57BI/6 mice were treated with vehicle or 20 mg/kg Compound 1 p.o. (daily from day 7-16) in combination with PBS or 10 μg ADU-S100 i.t. (on days 9, 11, 13, and 15).

4T1 breast cancer cells = test: qRT-PCR, combination with cGAMP, 4T1 cells; assay type: cell-based, Mouse; details: 24 hours, 5 μM Compound 1 or 10 μM Compound 2, 10 mg/ml cGAMP
Description: 4T1 cells were treated for 24 hours with DMSO or VPS34 inhibitors (5 μM Compound 1 or 10 μM Compound 2) in combination with 10 mg/ml STING agonist cGAMP (green bars). Cells were washed with PBS and RNA was isolated using the PureLink RNA kit (#12183018A, Thermo Fisher Scientific) according to the manufacturer's protocol. Genomic DNA was removed using DNA-binding columns (RNeasy plus kit, #74134, Qiagen) and/or DNase treatment (#12185010, Thermo Fisher Scientific). RNA was quantified using NanoDrop (Thermo Fisher Scientific) and 50 ng/μL RNA was used for cDNA synthesis with SuperScript IV VILO Master Mix (#11756050, Thermo Fisher Scientific). Quantitative RT-PCR (qRT-PCR) was run with diluted cDNA (1:25 or 1:12.5), PowerUp SYBR Green Master Mix (#A25741, Thermo Fisher Scientific), and 200 nM primers (see below) on a CFX Connect RT-PCR system (BioRad). Data was analyzed using the ΔΔCT method. Results are mean±SEM of three independent experiments.

A-498 cells = test: Western blot, STAT1 phosphorylation in A-498 cells; assay type: cell-based, human
Description: A-498 cells were seeded at 1.5×10^5 cells/well in 6-well plates and cultured overnight. Cells were treated with 10 μg/mL mouse monoclonal antibody to human interferon α/β receptor chain 2 (α-IFNAR2) (clone: MMHAR-2, #21385-1, PBL Assay Science) or 10 μg/mL mouse IgG2a isotype control antibody (clone: eBM2a, #16-4724-81, Thermo Fisher Scientific). After 1 h, DMSO or 2 μM Compound 1 was added and cells were incubated for another 24 h. […] A-498 cells were washed in PBS and lysed in RIPA buffer (50 mM Tris HCl pH=7.4, 150 mM NaCl, 1% Triton X-100, 0.5% Na-deoxycholate, 0.1% SDS) containing protease inhibitor cocktail (#11836170001, Roche), and phosphatase inhibitor (#11836170001, Roche) for 10 min at 4° C. After centrifugation at 15000 rpm for 10 min at 4° C., the supernatant was obtained, and protein concentration was quantified using BCA assay (#23225, Thermo Fisher). Equal amounts were mixed with 0.1 M DTT and LDS Sample Buffer (#84788, Thermo Fisher), heated for 5 min at 90° C. before loading onto 4-12% Bis-Tris gels. Proteins were transferred to nitrocellulose membranes. Membranes were blocked in 5% non-fat dry milk in TBS with 0.05% Tween (TBS-T) for 1 h at RT, washed in TBS-T, and probed with primary antibodies shaking overnight at 4° C. After washing in TBS-T, membranes were incubated with IRDye 800CW goat anti-rabbit or IRDye 680RD donkey anti-mouse IgG (H+L) (#926-32211 and #926-68072, respectively, LI-COR, 1:10,000 dilution) secondary antibody in Intercept blocking buffer (#927-60001, LI-COR) for 1 h at RT. After washing in TBS-T, membranes were imaged using the Odyssey CLx (LI-COR). Band intensities were quantified using Image Studio Lite software version 5.2.5 (LI-COR).

Row | SMILES | ISRE activity (QUANTI-Luc) [1] | NFκB activity (QUANTI-Blue) [1] | secretion of CCL5 [2] | secretion of CXCL10 [2] | secretion of IFNβ [2] | sensitization of B16-F10 tumors to STING agonist treatment (tumor growth, survival) (B16-F10 tumors; C57BI/6 mice, 20 mg/kg Compound 1 p.o. daily day 7-16 with 10 μg ADU-S100 i.t. on days 9, 11, 13, 15) | mice survival (B16-F10 tumors; Renca and B16-F10 tumor-bearing mice, Compound 1 with STING agonist treatment) | CCL5 mRNA expression (4T1 breast cancer cells) | CXCL10 mRNA expression (4T1 breast cancer cells) | phosphorylation of STAT1 (A-498 cells; 2 μM Compound 1, 24 h) | total levels of STAT1 (A-498 cells; 2 μM Compound 1, 24 h) | phosphorylation of STAT1 with addition of α-IFNAR2 (A-498 cells; 10 μg/mL α-IFNAR2 antibody 1 h before 2 μM Compound 1, 24 h)
1 | Nc1ncnc2c1ncn2[C@@H]1O[C@@H]2COP(=O)([S-])O[C@@H]3[C@H](O)[C@@H](COP([O-])(=S)O[C@H]2[C@H]1O)O[C@H]3n1cnc2c(N)ncnc21.[Na+].[Na+] (some centres unmarked) [ADU-S100, reference compound] | stimulates | stimulates | stimulates | stimulates | stimulates |  |  |  |  |  |  | 
2 | C[C@@H]1COCCN1c1cc(N2CCCC[C@@H]2C(F)(F)F)[nH]c(=O)c1 [Compound 1, 4-((R)-3-methylmorpholino)-6-((R)-2-(trifluoromethyl)piperidin-1-yl)pyridin-2(1H)-one] |  |  |  |  |  | sensitized | significantly improved | increased | increased | increased | did not alter | inhibited
3 | C[C@@H]1COCCN1c1cc(=O)n2c(n1)N(Cc1cncc(Cl)c1)[C@H](C(F)(F)F)CC2 [Compound 2, (S)-9-((5-chloropyridin-3-yl)methyl)-2-((R)-3-methylmorpholino)-8-(trifluoromethyl)-6,7,8,9-tetrahydro-4H-pyrimido[1,2-a]pyrimidin-4-one] |  |  |  |  |  |  |  | increased | increased |  |  | 

Reference: patent US20250127790A1, “COMBINATION THERAPY USING VPS34 INHIBITORS” (Deciphera Pharmaceuticals, LLC, priority 2021, published 2025)
